The subject of one data set is N. caninum. Briefly: Mice experimentally infected with N. caninum. Details: species or system Balb/c mice. As to conditions: mouse, in vivo.
Data set [1] is described as follows: Rat PK following IV and PO dosing. As to conditions: PO vs IV, rats.

From patent US10632122B2, “Compositions and methods for treating toxoplasmosis, cryptosporidiosis and other apicomplexan protozoan related diseases” (University of Washington, priority 2015, dated 2020) come the findings set out here.

Each structure is given as a SMILES string.

For `CCOc1ccc2cc(-c3nn(CC4CCN(C)CC4)c4ncnc(N)c34)ccc2c1` [Compound 150], in the data set on N. caninum, the “treatment of N. caninum infected mice” value is “treats infected mice and rids of N. caninum infection in brain and fetuses”.

As to `CC(C)Cn1nc(-c2ccc3cc(OCC(C)(C)O)ccc3c2)c2c(N)ncnc21` [Example 33, 1-(6-(4-amino-1-isobutyl-1H-pyrazolo[3,4-d]pyrimidin-3-yl)naphthalen-2-yloxy)-2-methylpropan-2-ol], the bioavailability entry in data set [1] is “essentially complete bioavailability”.
